From patent US20110124586A1, “EXTERNAL PREPARATION FOR SKIN, AND WRINKLE-REPAIRING AGENT” (Kao Corporation, priority 2008, published 2011) come the findings set out here.

For one data set, the system named is photoaged skin. The experiment in a line: Wrinkle reduction test on photoaged skin of hairless mice (UVA/UVB irradiation). The class given is in vivo. The settings on record: photoaged hairless mouse skin. From the text:
A wrinkle-reducing effect in the case of applying a sample containing a base alone or lauryl thiogalactoside (compound of Production Example 2) to photoaged skin was examined by the following test methods.
Ten hairless mice, which were 10 weeks old at the start of the test, were used for each group.
Photoaging was induced by irradiation with UVA and UVB once a day, five times a week for 8 weeks. An irradiation dose was increased every week from 20 J/cm^2 to 25 J/cm^2 and to 30 J/cm^2 for UVA, from 20 mJ/cm^2 to 30 mJ/cm^2 and to 40 mJ/cm^2 for UVB, and the maximum dose was irradiated in Week 3 or later.
A wrinkle-reducing effect was evaluated by a wrinkle score and an epidermal thickness. The wrinkle score was determined in accordance with the method of Bissett et al. (Photochem. Photobiol. 46: 367-378, 1987). In other words, the size and depth of wrinkles were comprehensively evaluated with naked eyes and scored with the following four grades: 3, “large and deep wrinkles can be confirmed”; 2, “wrinkles can be confirmed”; 1, “no wrinkles can be confirmed”; and 0, “normal skin texture can be observed”. […]
A sample containing lauryl thiogalactoside in an amount of 1% in a 50 vol % ethanol aqueous solution (base) was prepared (Example 1). […] Subsequently, after the completion of the application, the wrinkle score was determined. […]

Data set [1] in a line: Moisture retention test (rate of decrease in water content of solution). The class given is physicochemical. The settings on record: 10 mass % in ion exchanged water; silica gel desiccator 25° C., RH 20%; vs water alone; FIG. 1. Here is the method: In accordance with the following test method, the rate of decrease in water content of lauryl thiogalactoside (compound of Production Example 2) solution was calculated to evaluate moisture-retaining property.
0.5 g of a sample prepared by adjusting a concentration of lauryl thiogalactoside to 10 mass % with ion exchanged water was weighed in a container made of a resin to measure an initial weight (W0).
Next, the sample was left to stand still in a silica gel desiccator (RT; 25° C., RH; 20%) to measure a time-dependent weight (Wt) of the sample.
After the completion of the test, the sample was dried in a dryer (50° C.) for 2 hours and then left to stand still in a silica gel desiccator for 2 hours to measure a dry weight (Ws).
The same operation was conducted for a control sample prepared using water alone, and the rate of decrease in water content was calculated with the following equation.
Rate of decrease in water content (%)=Ht/H0×100(Ht=Wt−Ws, H0=W0−Ws)

`CCCCCCCCCCCCSC1OC(CO)C(O)C(O)C1O` (stereo not shown) [lauryl thiogalactoside]: in the data set with photoaged skin, the “Effect on epidermal thickening (in words)” value is reported as “had an effect of alleviating the epidermal thickening owing to photoaging” and the “Effect on wrinkles / wrinkle score (in words)” value is “effective for wrinkles induced by photoaging”. In the data set “Ordinary safety test”, the “Result in an ordinary safety test” value was “does not have any problem in an ordinary safety test”. Further, in data set [1], the “Moisture-retaining property (rate of decrease in water content)” value was “did not suppress water volatilization in a dry state and exhibited an insufficient moisture-retaining action”.
